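In this assay, cells in 96-well plates receive the compound at five concentrations for 48 hours. Endpoints are linearly interpolated between the surrounding concentrations. GI50: concentration for 50% inhibition of growth.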 Active and inactive are the calls of the source. No stated cut-off is given here; in the data, active = GI50 up to about 1.1 µM and inactive = higher.
Experiments:
Assay in all cases: NCI anticancer screen, dose series, 48 h
[1] = test system: UO-31
[2] = test system: TK-10
[3] = test system: A549
[4] = test system: SW-620
[5] = test system: UACC-257
[6] = test system: HOP-62
[7] = test system: OVCAR-8
[8] = test system: U-251
[9] = test system: HCT-116
[10] = test system: OVCAR-5
[11] = test system: KM12
[12] = test system: SK-OV-3
[13] = test system: NCI-H460
[14] = test system: HOP-92
[15] = test system: T47D
[16] = test system: COLO 205
[17] = test system: K562
[18] = test system: NCI/ADR-RES
[19] = test system: RXF 393
[20] = test system: IGROV-1

Measured: GI50

CC1=C(OC2OC(CO)C(O)C(O)C2O)C(=O)C[C@H]2C1=CC[C@@H]1[C@@]2(C)C(=O)C[C@]2(C)[C@@H]([C@@](C)(O)C(=O)CCC(C)(C)O)[C@H](O)C[C@@]12C (some centres not stated)
inactive: [1] > 100 µM | [2] > 100 µM | [3] > 100 µM | [4] > 100 µM | [5] > 100 µM | [6] > 100 µM | [7] > 100 µM | [8] > 100 µM | [9] > 100 µM | [10] > 100 µM | [11] > 100 µM | [12] > 100 µM | [13] > 100 µM | [14] > 100 µM | [15] > 100 µM | [16] > 100 µM | [17] > 100 µM | [18] > 100 µM | [19] > 100 µM | [20] > 100 µM

O=[N+]([O-])c1cc(C(F)(F)F)cc2n[se]nc12
active: [17] 0.822 µM
inactive: [1] 5.53 µM | [2] 4.5 µM | [3] 11.4 µM | [4] 1.45 µM | [5] 2.16 µM | [6] 15.7 µM | [7] 1.97 µM | [8] 15.1 µM | [9] 1.75 µM | [10] 13.1 µM | [11] 9.33 µM | [12] 13.6 µM | [13] 6.22 µM | [14] 2.26 µM | [15] 3.17 µM | [16] 2.03 µM | [18] 2.12 µM | [19] 2.3 µM | [20] 5.07 µM

O=[N+]([O-])c1ccc2nc3ccccc3cc2c1
active: [17] 0.0782 µM
inactive: [1] 3.4 µM | [2] 1.64 µM | [3] 2.5 µM | [4] 1.85 µM | [5] 1.34 µM | [6] 2.26 µM | [7] 1.26 µM | [8] 2.69 µM | [9] 1.65 µM | [10] 2.48 µM | [12] 4.21 µM | [13] 3.03 µM | [14] 3.28 µM | [15] 3.63 µM | [16] 3.56 µM | [18] 1.51 µM | [19] 13.8 µM | [20] 1.91 µM

Cc1ccc(C)c(N2C(=O)C(=O)c3c(C)ccc(C)c32)c1
inactive: [1] 22.9 µM | [2] 28.8 µM | [3] 25.7 µM | [4] 27.7 µM | [5] 24 µM | [6] 40.6 µM | [7] 23.8 µM | [8] 17.2 µM | [9] 16.3 µM | [10] 57.1 µM | [11] 24.5 µM | [12] 47.9 µM | [13] 37.2 µM | [14] 23.6 µM | [15] 11.6 µM | [16] 34.9 µM | [17] 22 µM | [18] 23.6 µM | [19] 49.7 µM | [20] 15.3 µM

CC(NC(=O)OCc1ccccc1)NC(=O)C(CC(=O)OC(C)(C)C)NC(=O)OC(C)(C)C (configuration not stated)
inactive: [1] > 100 µM | [2] > 100 µM | [3] > 100 µM | [4] > 100 µM | [5] > 100 µM | [6] > 100 µM | [7] > 100 µM | [8] > 100 µM | [9] > 100 µM | [10] > 100 µM | [11] > 100 µM | [12] > 100 µM | [13] > 100 µM | [14] > 100 µM | [15] > 100 µM | [16] > 100 µM | [17] > 100 µM | [18] > 100 µM | [19] > 100 µM | [20] > 100 µM

C[C@@]12C[C@@H](c3ccccc3O1)N1CCSC1=N2
inactive: [1] > 100 µM | [2] > 100 µM | [4] > 100 µM | [5] > 100 µM | [6] > 100 µM | [7] > 100 µM | [8] > 100 µM | [9] > 100 µM | [10] > 100 µM | [11] > 100 µM | [12] > 100 µM | [13] > 100 µM | [14] > 100 µM | [15] > 100 µM | [16] > 100 µM | [17] > 100 µM | [18] > 100 µM | [19] > 100 µM | [20] > 100 µM

C/C(=N\NC(=O)c1ccncc1)c1ccccc1F
inactive: [1] > 10 µM | [2] > 10 µM | [3] > 10 µM | [4] > 10 µM | [6] > 10 µM | [7] > 10 µM | [8] > 10 µM | [9] > 10 µM | [10] > 10 µM | [11] > 10 µM | [12] > 10 µM | [13] > 10 µM | [14] 2.37 µM | [15] > 10 µM | [16] > 10 µM | [17] > 10 µM | [18] > 10 µM | [19] > 10 µM | [20] > 10 µM
